Assay results as given in the supplement of paper PMC10307832.

Assays:
Experiment in all cases: relative viability (nuclei count vs DMSO), 5 days (fraction); higher = more cells survive
[1] = compound: COc1ccc(-c2ccc3c(N4CCOC[C@@H]4C)nc(N4CCOC[C@@H]4C)nc3n2)cc1CO [AZD8055] + CC(=O)c1c(C)c2cnc(Nc3ccc(N4CCNCC4)cn3)nc2n(C2CCCC2)c1=O [Palbociclib] (partner 0.5 µM)
Outline: (§1)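 Dosing by pin tool came one day after lung cancer cell lines were seeded in 1536-well plates, using either one drug or a fixed anchor-drug dose plus five library-drug doses (not always all listed) in √10 steps. After 5 days, nuclei were counted on 4× images. Relative viability is treated-well nuclei count divided by vehicle-well nuclei count, and values are medians of duplicate plates.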

[2] = compound: COc1ccc(-c2ccc3c(N4CCOC[C@@H]4C)nc(N4CCOC[C@@H]4C)nc3n2)cc1CO [AZD8055] + Cc1nc(Nc2ncc(C(=O)Nc3c(C)cccc3Cl)s2)cc(N2CCN(CCO)CC2)n1 [Dasatinib] (partner 0.075 µM)
Outline: as §1

[3] = compound: COc1ccc(-c2ccc3c(N4CCOC[C@@H]4C)nc(N4CCOC[C@@H]4C)nc3n2)cc1CO [AZD8055] + CCNC(=O)c1noc(-c2cc(C(C)C)c(O)cc2O)c1-c1ccc(CN2CCOCC2)cc1 [Luminespib] (partner 0.01 µM)
Outline: as §1

[4] = compound: COc1ccc(-c2ccc3c(N4CCOC[C@@H]4C)nc(N4CCOC[C@@H]4C)nc3n2)cc1CO [AZD8055] + CC(C)C[C@H](NC(=O)[C@H](Cc1ccccc1)NC(=O)c1cnccn1)B(O)O [Bortezomib] (partner 0.002 µM)
Outline: as §1

| Cell Line | relative viability ([1]; first compound 0.01 µM) | relative viability ([1]; first compound 0.03162 µM) | relative viability ([1]; first compound 0.1 µM) | relative viability ([1]; first compound 0.3162 µM) | relative viability ([1]; first compound 1 µM) | relative viability ([2]; first compound 0.01 µM) | relative viability ([2]; first compound 0.03162 µM) | relative viability ([2]; first compound 0.1 µM) | relative viability ([2]; first compound 0.3162 µM) | relative viability ([2]; first compound 1 µM) | relative viability ([3]; first compound 0.01 µM) | relative viability ([3]; first compound 0.03162 µM) | relative viability ([3]; first compound 0.1 µM) | relative viability ([3]; first compound 0.3162 µM) | relative viability ([3]; first compound 1 µM) | relative viability ([4]; first compound 0.01 µM) | relative viability ([4]; first compound 0.03162 µM) | relative viability ([4]; first compound 0.1 µM) | relative viability ([4]; first compound 0.3162 µM) | relative viability ([4]; first compound 1 µM) |
| --- | --- | --- | --- | --- | --- | --- | --- | --- | --- | --- | --- | --- | --- | --- | --- | --- | --- | --- | --- | --- |
| HCC-827 | 0.482 | 0.406 | 0.381 | 0.227 | 0.181 | 0.334 | 0.273 | 0.258 | 0.241 | 0.167 | 0.6 | 0.336 | 0.308 | 0.319 | 0.13 | 1.2 | 1.04 | 1.11 | 0.935 | 1.08 |
| HCC-78 | 0.492 | 0.529 | 0.379 | 0.437 | 0.463 | 0.328 | 0.306 | 0.222 | 0.233 | 0.247 | – | – | – | – | – | 0.561 | 0.466 | 0.423 | 0.274 | 0.288 |
| NCI-H2085 | 0.493 | 0.448 | 0.386 | 0.37 | 0.3 | 0.205 | 0.201 | 0.199 | 0.217 | 0.195 | 0.447 | 0.387 | 0.294 | 0.21 | 0.281 | 1.11 | 0.859 | 0.705 | 0.407 | 0.357 |
| PC-14 | 0.698 | 0.589 | 0.255 | 0.108 | 0.12 | 0.319 | 0.309 | 0.199 | 0.0815 | 0.0639 | 0.162 | 0.17 | 0.206 | 0.187 | 0.212 | 1.13 | 1.05 | 0.737 | 0.272 | 0.246 |
| NCI-H2342 | 0.489 | 0.537 | 0.458 | 0.473 | 0.426 | 0.316 | 0.288 | 0.268 | 0.293 | 0.304 | 0.579 | 0.535 | 0.599 | 0.419 | 0.424 | – | – | – | – | – |
| A-427 | 0.516 | 0.553 | 0.467 | 0.392 | 0.409 | 0.666 | 0.632 | 0.572 | 0.281 | 0.339 | 1.3 | 0.832 | 0.817 | 0.482 | 0.581 | 1.01 | 0.815 | 0.858 | 0.518 | 0.462 |
| H3255 | 0.3 | 0.303 | 0.314 | 0.288 | 0.292 | 0.364 | 0.429 | 0.3 | 0.323 | 0.306 | 0.879 | 0.804 | 0.845 | 0.382 | 0.381 | 0.777 | 0.901 | 0.525 | 0.371 | 0.259 |
| HCC-44 | 0.949 | 0.936 | 0.949 | 0.925 | 0.867 | – | – | – | – | – | 1.03 | 0.974 | 0.804 | 0.439 | 0.429 | 1.01 | 0.942 | 0.853 | 0.494 | 0.449 |
| NCI-H1734 | 0.378 | 0.386 | 0.288 | 0.215 | 0.192 | 0.563 | 0.366 | 0.318 | 0.152 | 0.162 | 0.199 | 0.167 | 0.194 | 0.151 | 0.183 | 0.954 | 0.729 | 0.552 | 0.278 | 0.274 |
| NCI-H2228 | 0.696 | 0.477 | 0.388 | 0.168 | 0.166 | 0.429 | 0.358 | 0.136 | 0.144 | 0.171 | 0.137 | 0.11 | 0.104 | 0.15 | 0.144 | 0.877 | 0.507 | 0.315 | 0.198 | 0.29 |
| ABC-1 | 0.915 | 0.54 | 0.483 | 0.503 | 0.47 | 0.692 | 0.548 | 0.526 | 0.219 | 0.3 | 0.434 | 0.521 | 0.289 | 0.331 | 0.284 | 0.3 | 0.287 | 0.366 | 0.284 | 0.329 |
| NCI-H358 | 0.143 | 0.137 | 0.135 | 0.115 | 0.101 | 0.169 | 0.173 | 0.0957 | 0.0735 | 0.0998 | 0.33 | 0.336 | 0.392 | 0.123 | 0.0919 | – | – | – | – | – |
| EBC-1 | – | – | – | – | – | – | – | – | – | – | – | – | – | – | – | 0.485 | 0.502 | 0.301 | 0.236 | 0.224 |
| NCI-H596 | – | – | – | – | – | 0.594 | 0.516 | 0.468 | 0.286 | 0.301 | 0.961 | 0.813 | 0.44 | 0.343 | 0.346 | 0.856 | 0.722 | 0.697 | 0.459 | 0.497 |
| SK-MES-1 | 0.284 | 0.247 | 0.24 | 0.228 | 0.249 | 0.404 | 0.337 | 0.256 | 0.213 | 0.179 | 0.371 | 0.503 | 0.185 | 0.182 | 0.213 | – | – | – | – | – |
| NCI-H1703 | – | – | – | – | – | – | – | – | – | – | – | – | – | – | – | 0.278 | 0.231 | 0.18 | 0.181 | 0.194 |
| NCI-H1944 | 0.291 | 0.264 | 0.22 | 0.174 | 0.152 | 0.187 | 0.174 | 0.185 | 0.166 | 0.152 | 0.866 | 0.573 | 0.483 | 0.277 | 0.222 | – | – | – | – | – |
| NCI-H1563 | – | – | – | – | – | 0.458 | 0.458 | 0.443 | 0.405 | 0.384 | 0.594 | 0.536 | 0.541 | 0.496 | 0.49 | 0.862 | 0.808 | 0.758 | 0.599 | 0.773 |
| NCI-H1395 | 0.604 | 0.526 | 0.547 | 0.44 | 0.45 | 0.405 | 0.376 | 0.37 | 0.31 | 0.292 | 0.669 | 0.379 | 0.684 | 0.445 | 0.36 | – | – | – | – | – |
| NCI-H2170 | 0.331 | 0.314 | 0.233 | 0.173 | 0.143 | 0.557 | 0.558 | 0.333 | 0.205 | 0.197 | 0.633 | 0.715 | 0.403 | 0.233 | 0.165 | – | – | – | – | – |
